# “Also recorded” adds a separate entry of the source.
# Legend:
# [1] = tested on: HCT-116 cells transfected with human c-FLIP or empty vector; assay: Annexin V-FITC assay, readhesion of HCT-116 cells transfected with human c-FLIP or empty vector; assay type: cell-based; conditions: readhesion 8 hours
# Method: Since HCT-116 colon cancer cells have relatively low levels of FLIP compared with other cancer cell lines (FIG. 13A), they were transfected with human c-FLIP. HCT-116 cells that were transfected with human c-FLIP or empty vector were transiently suspended and allowed to readhere in the presence of BAY 11-7085 for 8 hours. […] Thus, FLIP appears to be an important target of BAY 11-7085 and is able to inhibit BAY 11-7085-mediated apoptosis during colon cancer cell readhesion.
# [2] = tested on: adherent HT-29 cells; assay: Annexin V-FITC apoptosis assay, adherent cells; assay type: cell-based, human
# Text: (§1) FIG. 3 is a group of graphs that show NF-κB inhibitors cause apoptosis of colon cancer cells. […] The data points represent the average percent of annexin V-positive, propidium iodide-negative cells (of the total cells counted) from triplicate experiments. The error bars represent the standard error of the means. […] The results shown are a graphic representation of individual flow cytometry results expressed as the percentage of cells that were annexin V-positive of those that excluded propidium iodide. […] An immunoblot of the lysates for cleaved PARP was performed. Each lane represents equal total protein concentrations. […] The cells were allowed to adhere to plastic dishes for 1 hour after which they were washed gently in PBS and stained with crystal violet. The crystal violet stained cells were solubilized in deoxycholate and the absorbance detected in a spectrophotometer at 590 nm. The adherent cells were expressed as a fraction of the controls. Each data point represents the average of triplicate experiments and the error bars the standard errors of the means.
# (§2) The data points represent the means of triplicate experiments and the error bars the standard errors of the means. […] The percent of apoptotic cells was then determined by the annexin V assay. […] The results shown are typical of two separate experiments. […] Immunoblots were performed for c-IAP-2, TRAF-1, TRAF-2, and FLIP. All lanes contain equal total protein.
# Single cell suspensions were plated at 100,000 cells per well in 24-well plates in media containing DMSO, BAY 11-7082, BAY 11-7085, or MG-132 for 8-24 hours in an incubator. Alternatively, DMSO, BAY 11-7082, BAY 11-7085, or MG-132 were added to cells that were confluent and adherent for several days. The nonadherent cells were aspirated off with the media and spun for 3 minutes at 2,000 rpm in 15 mL polypropylene tubes. The adherent cells were washed twice with PBS, dispersed in trypsin, and spun down for 3 minutes at 2,000 rpm in 15 mL polypropylene tubes. The nonadherent and adherent cells were resuspended in 1× binding buffer (10 mM HEPES/NaOH, pH 7.4, 140 mM NaCl, and 2.5 mM CaCl2) to a final concentration of 10^6 cells/mL. 100 μL of the cell solution were transferred to a 5 mL culture tube and incubated with 5 μL of annexin V-FITC-conjugated monoclonal antibody (Pharmingen) and 10 μl, of propidium iodide (from a 50 μg/mL stock solution made in PBS) in the dark at 25° C. for 15 minutes. 400 μL of binding buffer was added to each tube and the cells were analyzed by flow cytometry immediately. The percent of apoptosis was determined as the percent of annexin V-positive, propidium iodide-negative cells of the total cells counted.
# [3] = tested on: HT-29 cells; assay: One-hour cell adhesion assay (crystal violet); assay type: cell-based, human; conditions: adherent HT-29 pretreated for three days with various concentrations, then one-hour adhesion assay
# Text: as §1
# Even though BAY 11-7085 induced a loss of cell adhesion, it was important to show whether HT-29 cells were actually susceptible to anoikis.
# [4] = tested on: FLIP; assay: FLIP immunoblot in HT-29 cells; assay type: cell-based, human
# Method: as §2
# The cells were washed twice in ice cold PBS and then lysed in 4° C. lysis buffer (50 mM HEPES, 150 mM NaCl, 1.5 mM MgCl2, 1 mM EGTA, 100 mM NaF, 10 mM Na2PO4, 1 mM Na3VO4, 10% glycerol, 1% TRITON™ X-100, and 1 μg/mL each of aprotinin, leupeptin, chymostatin, pepstatin) and clarified at 12,000 rpm at 4° C. for 15 minutes. The lysates were normalized for total protein concentration. […]
# For immunodetection, the blocked blots were probed with primary antibody for 2 hours at 4° C. on a rocker. […] Alkaline phosphatase was detected by a colorimetric reaction using a BCIP (5-bromo-4-chloro-3-indolyl phosphate)/NBT (nitroblue tetrazolium) kit (Zymed).
# Since HCT-116 colon cancer cells have relatively low levels of FLIP compared with other cancer cell lines (FIG. 13A), they were transfected with human c-FLIP. HCT-116 cells that were transfected with human c-FLIP or empty vector were transiently suspended and allowed to readhere in the presence of BAY 11-7085 for 8 hours. […]
compound,measurement,setting,value
"CC(C)(C)c1ccc(S(=O)(=O)/C=C/C#N)cc1 [BAY 11-7085, (2E)-3-[4-(tertiarybutylphenyl)sulfonyl]-2-propenenitrile]",apoptosis (Annexin V-FITC assay),[1]; HCT-116 over-expressing FLIP,much more resistant to BAY 11-7085
same,apoptosis (Annexin V-FITC assay),[1]; control (empty vector) HCT-116,induced apoptosis
same,apoptotic cells among cells that remained adherent,"[2]; HT-29 treated with increasing concentrations of BAY 11-7085, adherent fraction",only a minority of the adherent cells was apoptotic
same,apoptotic cells among cells that became nonadherent,"[2]; HT-29 treated with increasing concentrations of BAY 11-7085, nonadherent fraction",the majority of nonadherent cells were apoptotic; also recorded: predominantly apoptotic
same,"level of apoptosis (annexin V-positive, propidium iodide-negative cells)","[2]; adherent HT-29, 24 hours, BAY compounds at doses up to 20, MG-132 20 μM",relatively greater for MG-132 than BAY 11-7085; also recorded: caused an increase in the level of apoptosis
same,apoptosis of adherent HT-29 cell monolayers,"[2]; even the highest doses (10-100 μM), compared with transiently suspended cells",only a relatively small degree of apoptosis
same,cell adhesion,[3],significant and rapid inhibition of cell adhesion at high concentrations
same,expression of the 54 kilodalton (long) isoform of FLIP,"[4]; adherent HT-29, 20 μM",only a slight diminution
same,FLIP expression in readhering HT-29 cells,"[4]; readhering HT-29, 3 hours",caused the down-regulation of FLIP after only 3 hours
